The term IC50 denotes the concentration that inhibits the measured activity by half. As a reminder, the inhibition is the relative decrease from the control value, in per cent.

Consider seven compounds from PubChem BioAssay AID624129 (Sanford-Burnham Center for Chemical Genomics, 2012).

Calls of active or inactive are those of the source. The rule behind the calls is not given here.

What all share (assay): CXCR6 receptor antagonists, dose response, cell-based, beta-arrestin, DiscoveRx, APJ panel, uHTS hits (AID 624129)
The target of assay [1] is Beta-galactosidase (Escherichia coli) (UniProt Q8VNN2). The following applies: CXCR6 beta-arrestin (DiscoveRx) antagonist cell assay, b-galactosidase.
Assay [2] deals with C-C chemokine receptor type 6 (Homo sapiens) (UniProt P51684). The following applies: CXCR6 beta-arrestin (DiscoveRx) antagonist cell assay.
The target in assay [3] is C-X-C chemokine receptor type 6 (Homo sapiens) (UniProt O00574). The following applies: CXCR6 beta-arrestin (DiscoveRx) antagonist cell assay; for inhibition: CXCR6, run 1, dose range 2, at 80 µM (top of the series).
The target in assay [4] is Apelin receptor (Homo sapiens) (UniProt P35414). The following applies: CXCR6 beta-arrestin (DiscoveRx) antagonist cell assay, APJ.
[5] abbreviates: dose range 1, mean IC50 across replicates.
The mark [6] stands for this setting: CCR6, dose range 1, mean IC50 across replicates.
[7] abbreviates: CXCR6, dose range 1, mean IC50 across replicates.

Chain of Beta-galactosidase (Escherichia coli) (Q8VNN2 whole entry, looked up): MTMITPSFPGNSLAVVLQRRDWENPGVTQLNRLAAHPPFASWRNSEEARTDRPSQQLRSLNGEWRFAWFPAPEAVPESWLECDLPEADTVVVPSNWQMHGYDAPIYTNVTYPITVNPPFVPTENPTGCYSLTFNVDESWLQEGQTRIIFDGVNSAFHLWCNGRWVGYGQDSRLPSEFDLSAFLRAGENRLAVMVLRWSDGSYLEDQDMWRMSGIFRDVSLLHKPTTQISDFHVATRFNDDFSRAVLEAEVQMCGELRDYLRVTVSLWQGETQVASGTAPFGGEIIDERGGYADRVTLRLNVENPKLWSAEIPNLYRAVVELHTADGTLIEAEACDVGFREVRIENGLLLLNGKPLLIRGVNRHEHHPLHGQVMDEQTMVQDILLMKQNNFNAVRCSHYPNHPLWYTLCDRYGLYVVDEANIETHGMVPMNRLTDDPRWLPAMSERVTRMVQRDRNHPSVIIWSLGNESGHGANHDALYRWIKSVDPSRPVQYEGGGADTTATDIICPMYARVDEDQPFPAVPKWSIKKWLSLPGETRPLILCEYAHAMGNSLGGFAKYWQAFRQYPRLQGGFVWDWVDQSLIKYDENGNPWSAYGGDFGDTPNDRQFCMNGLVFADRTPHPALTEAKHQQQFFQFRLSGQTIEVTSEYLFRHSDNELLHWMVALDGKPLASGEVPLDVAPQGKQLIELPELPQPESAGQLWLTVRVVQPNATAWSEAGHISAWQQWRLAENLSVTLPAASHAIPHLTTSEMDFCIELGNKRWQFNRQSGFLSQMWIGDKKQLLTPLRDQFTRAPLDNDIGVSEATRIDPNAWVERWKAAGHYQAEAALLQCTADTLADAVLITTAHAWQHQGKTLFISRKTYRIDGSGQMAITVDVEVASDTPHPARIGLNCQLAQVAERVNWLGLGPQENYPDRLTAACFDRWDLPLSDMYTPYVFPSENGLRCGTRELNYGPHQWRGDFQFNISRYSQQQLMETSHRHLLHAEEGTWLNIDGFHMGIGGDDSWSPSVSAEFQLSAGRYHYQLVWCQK
Chain of C-X-C chemokine receptor type 6 (Homo sapiens) (O00574 whole entry, looked up): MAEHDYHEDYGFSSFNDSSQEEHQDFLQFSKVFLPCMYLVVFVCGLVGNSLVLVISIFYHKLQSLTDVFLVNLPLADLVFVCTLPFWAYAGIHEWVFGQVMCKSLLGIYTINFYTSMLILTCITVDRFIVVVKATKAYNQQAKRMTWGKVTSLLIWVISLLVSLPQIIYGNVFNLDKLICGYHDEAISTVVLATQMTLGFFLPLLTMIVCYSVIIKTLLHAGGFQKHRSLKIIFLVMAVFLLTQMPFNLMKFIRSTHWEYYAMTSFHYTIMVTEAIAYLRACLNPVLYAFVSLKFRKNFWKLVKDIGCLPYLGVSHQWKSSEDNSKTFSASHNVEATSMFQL

`CNc1ccc2oc(C[C@H]3O[C@@]4(CC[C@H]3C)O[C@H]([C@H](C)C(=O)c3ccc[nH]3)[C@H](C)C[C@H]4C)nc2c1C(=O)O`: the IC50 in assay [1] (dose range 1) is > 80 µM (inactive); in assay [1] (setting [5]), greater than 80 µM; in assay [2] (CCR6, dose range 1), 6.14 µM; in assay [2] (setting [6]) it was 6.15 µM; in assay [2] (CCR6, run 2, dose range 1) it was 6.16 µM; in assay [3] (CXCR6, dose range 1), 5.85 µM. The IC50 was 8.6 µM in assay [3] (setting [7]); 6.42 µM in assay [3] (CXCR6, run 1, dose range 2); 7.09 µM in assay [3] (CXCR6, run 2, dose range 1); 15 µM in assay [3] (CXCR6, run 2, dose range 2); 10.9 µM in assay [4] (dose range 1); 11.7 µM in assay [4] (setting [5]). Further, the IC50 in assay [4] (run 2, dose range 1) is 12.4 µM; in assay [4] (run 3, dose range 1), greater than 80 µM.

`CCOc1ccccc1NC(=O)c1nc(S(=O)(=O)Cc2ccccc2)ncc1Cl`: the IC50 in assay [1] (dose range 1) is > 80 µM (inactive); in assay [1] (setting [5]) it was greater than 80 µM; in assay [2] (CCR6, dose range 1), 8.24 µM; in assay [2] (setting [6]), 7.46 µM; in assay [2] (CCR6, run 2, dose range 1), 6.69 µM; in assay [3] (CXCR6, dose range 1), 9.59 µM. In addition, the IC50 is 10.7 µM in assay [3] (setting [7]); 11.2 µM in assay [3] (CXCR6, run 1, dose range 2); 11.5 µM in assay [3] (CXCR6, run 2, dose range 1); 10.7 µM in assay [3] (CXCR6, run 2, dose range 2); 13.4 µM in assay [4] (dose range 1); 13.4 µM in assay [4] (setting [5]). For the same compound, the IC50 in assay [4] (run 2, dose range 1) is 13.4 µM; in assay [4] (run 3, dose range 1), greater than 80 µM.

With `CC(=NNc1nc2ccccc2s1)c1ncccn1`, the IC50 is > 80 µM (inactive) in assay [1] (dose range 1); greater than 80 µM in assay [1] (setting [5]); 7.51 µM in assay [2] (CCR6, dose range 1); 8.91 µM in assay [2] (setting [6]); 10.3 µM in assay [2] (CCR6, run 2, dose range 1); 11.3 µM in assay [3] (setting [7]). In addition, the IC50 was 10.5 µM in assay [3] (CXCR6, run 2, dose range 1); 16.9 µM in assay [4] (dose range 1); 17.4 µM in assay [4] (setting [5]); 20.5 µM in assay [4] (run 2, dose range 1); 14.8 µM in assay [4] (run 3, dose range 1). Besides, in assay [3] (CXCR6, dose range 1), the IC50 result was “inactive”. For the same compound, the inhibition in assay [3] was determined as 125%.

Take `CN(CCO)c1cc(Sc2nc3ccccc3s2)c2nonc2c1[N+](=O)[O-]`: the half-inhibitory concentration (IC50) in assay [1] (dose range 1) is 25.6 µM; in assay [1] (setting [5]) it was 25.6 µM; in assay [2] (CCR6, dose range 1) it was 6 µM; in assay [2] (setting [6]), 5.65 µM; in assay [2] (CCR6, run 2, dose range 1), 5.3 µM; in assay [3] (CXCR6, dose range 1), 6.85 µM. The IC50 in assay [3] (setting [7]) is 7.46 µM; in assay [3] (CXCR6, run 1, dose range 2), 8.56 µM; in assay [3] (CXCR6, run 2, dose range 1), 6.34 µM; in assay [3] (CXCR6, run 2, dose range 2) it was 8.1 µM; in assay [4] (dose range 1), 10.3 µM; in assay [4] (setting [5]), 8.8 µM. For the same compound, the IC50 is 7.74 µM in assay [4] (run 2, dose range 1) and 8.35 µM in assay [4] (run 3, dose range 1).

`O=C(Nc1nc(-c2ccccn2)cs1)Nc1ccc(F)cc1F`: the IC50 was > 80 µM (inactive) in assay [1] (dose range 1); greater than 80 µM in assay [1] (setting [5]); 8.74 µM in assay [2] (CCR6, dose range 1); 10.1 µM in assay [2] (setting [6]); 11.5 µM in assay [2] (CCR6, run 2, dose range 1); 11.4 µM in assay [3] (CXCR6, dose range 1). The 50% inhibitory concentration (IC50) in assay [3] (setting [7]) was 8.93 µM; in assay [3] (CXCR6, run 1, dose range 2), 5.96 µM; in assay [3] (CXCR6, run 2, dose range 1), 11.5 µM; in assay [3] (CXCR6, run 2, dose range 2), 6.87 µM; in assay [4] (dose range 1), 8.6 µM; in assay [4] (setting [5]), 9.05 µM. Besides, the IC50 in assay [4] (run 2, dose range 1) came out at 9.65 µM; in assay [4] (run 3, dose range 1), 8.89 µM.

Turning to `Oc1c(I)cc(Cl)c2cccnc12`, the IC50 in assay [1] (dose range 1) was > 80 µM (inactive); in assay [1] (setting [5]), greater than 80 µM; in assay [2] (CCR6, dose range 1), 5.29 µM; in assay [2] (setting [6]) it was 6.44 µM; in assay [2] (CCR6, run 2, dose range 1), 7.59 µM; in assay [3] (CXCR6, dose range 1), 6.47 µM. In addition, the IC50 in assay [3] (setting [7]) was 4.36 µM; in assay [3] (CXCR6, run 2, dose range 1), 2.24 µM; in assay [4] (dose range 1), 3.72 µM; in assay [4] (setting [5]) it was 18.7 µM; in assay [4] (run 2, dose range 1), 12.7 µM; in assay [4] (run 3, dose range 1), 39.6 µM. Further, the inhibition in assay [3] worked out at 49.5%.

As to `Cc1nc2c(-c3ccc(Cl)cc3)c(C)[nH]n2c(=O)c1Cc1ccccc1`, the IC50 in assay [1] (dose range 1) is > 80 µM (inactive); in assay [1] (setting [5]), greater than 80 µM; in assay [2] (setting [6]) it was greater than 80 µM; in assay [2] (CCR6, run 2, dose range 1), greater than 80 µM; in assay [3] (CXCR6, dose range 1) it was > 80 µM (inactive); in assay [3] (setting [7]) it was greater than 80 µM. Besides, the IC50 is greater than 80 µM in assay [3] (CXCR6, run 2, dose range 1); greater than 80 µM in assay [4] (setting [5]); greater than 80 µM in assay [4] (run 2, dose range 1); greater than 80 µM in assay [4] (run 3, dose range 1). Further, the inhibition in assay [3] is -28.7%.
